{
  "source": "patent US20140107316A1",
  "about": "“DRUG DELIVERY CONJUGATES CONTAINING UNNATURAL AMINO ACIDS AND METHODS FOR USING” (priority 2012, published 2014)",
  "key": {"A549": {"test_system": "A549", "assay": "In vitro test against cancer cell lines, A549", "type": "cell-based, Human", "conditions": "A549, FR status −; evaluated from 0.1-100 nM", "experimental": "(§1) In vitro test against the various cancer cell lines. Cells are heavily seeded in 24-well Falcon plates and allowed to form nearly confluent monolayers overnight. Thirty minutes prior to the addition of the test compound, spent medium is aspirated from all wells and replaced with fresh folate-deficient RPMI medium (FFRPMI). A subset of wells are designated to receive media containing 100 μM folic acid. The cells in the designated wells are used to determine the targeting specificity. […] Following one rinse with 1 mL of fresh FFRPMI containing 10% heat-inactivated fetal calf serum, each well receives 1 mL of medium containing increasing concentrations of test compound (4 wells per sample) in the presence or absence of 100 μM free folic acid as indicated. Treated cells are pulsed for 2 h at 37° C., rinsed 4 times with 0.5 mL of media, and then chased in 1 mL of fresh medium up to 70 h. Spent medium is aspirated from all wells and replaced with fresh medium containing 5 μCi/mL ^3H-thymidine. […] A 450 μL aliquot of each solubilized sample is transferred to a scintillation vial containing 3 mL of Ecolume scintillation cocktail and then counted in a liquid scintillation counter. Final tabulated results are expressed as the percentage of ^3H-thymidine incorporation relative to untreated controls.\n(§2) Folate receptor expressing cells. […] EC1456 was evaluated from 0.1-100 nM."}, "folate receptors (FRs)": {"molecular_target": "T1, folate receptors (FRs) (Homo sapiens, UniProt P15328)", "T1 construct": "FR-positive KB cells were heavily seeded into 24-well cell culture plates; endogenous in cells; host or cells: KB cells (human cervical carcinoma)", "T1 sequence (P15328 25-234)": "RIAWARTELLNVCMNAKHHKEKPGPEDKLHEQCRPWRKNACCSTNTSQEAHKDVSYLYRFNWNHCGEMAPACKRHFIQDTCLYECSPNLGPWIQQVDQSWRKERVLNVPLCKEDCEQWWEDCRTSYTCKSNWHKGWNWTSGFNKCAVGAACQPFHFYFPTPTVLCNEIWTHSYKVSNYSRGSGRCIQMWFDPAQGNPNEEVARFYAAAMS", "assay": "Relative affinity assay (3H-folic acid displacement on KB cells)", "type": "binding", "conditions": "compared to folic acid (relative affinity=1), 10% serum/FDRPMI", "experimental": "Relative Affinity Assay. The affinity for folate receptors (FRs) relative to folate was determined according to a previously described method (Westerhof, G. R., J. H. Schornagel, et al. (1995) Mol. Pharm. 48: 459-471) with slight modification. Briefly, FR-positive KB cells were heavily seeded into 24-well cell culture plates and allowed to adhere to the plastic for 18 h. Spent incubation media was replaced in designated wells with folate-free RPMI (FFRPMI) supplemented with 100 nM ^3H-folic acid in the absence and presence of increasing concentrations of test article or folic acid. Cells were incubated for 60 min at 37° C. and then rinsed 3 times with PBS, pH 7.4. Five hundred microliters of 1% SDS in PBS, pH 7.4, were added per well. Cell lysates were then collected and added to individual vials containing 5 mL of scintillation cocktail, and then counted for radioactivity. Negative control tubes contained only the ^3H-folic acid in FFRPMI (no competitor). Positive control tubes contained a final concentration of 1 mM folic acid, and CPMs measured in these samples (representing non-specific binding of label) were subtracted from all samples."}, "LNCaP": {"test_system": "LNCaP", "assay": "In vitro test against cancer cell lines, LNCaP", "type": "cell-based, Human", "conditions": "FR status −, evaluated from 0.1-100 nM, read-out: EC1456 Activity (IC50)", "experimental": "as §1, §2"}, "IGROV1": {"test_system": "IGROV1", "assay": "In vitro test against cancer cell lines, IGROV1", "type": "cell-based, Human", "experimental": "as §1, §2"}, "MDA-MB-231 tumors": {"test_system": "MDA-MB-231 tumors", "assay": "Established subcutaneous MDA-MB-231 breast cancer xenograft", "type": "in vivo, mice", "conditions": "three times per week", "excerpt": "Inhibition of Tumor Growth in Mice.\nToxicity as Measured by Weight Loss.\nTriple negative breast cancer (TNBC) is a subtype characterized by lack of gene expression for estrogen, progesterone and Her2/neu. TNBC is difficult to treat, and its death rate is disproportionately higher than for any other subtype of breast cancer."}},
  "note": "“Also recorded” adds a separate entry of the source.",
  "data": [
    {"smiles": "CCCC(=O)OCN(C(=O)[C@@H](NC(=O)[C@H]1CCCCN1C)[C@@H](C)CC)[C@H](C[C@@H](OC(C)=O)c1nc(C(=O)N[C@@H](Cc2ccc(O)cc2)C[C@H](C)C(=O)NNC(=O)OCCSSC[C@@H](NC(=O)[C@H](CCC(=O)NC[C@H](O)[C@@H](O)[C@H](O)[C@H](O)CO)NC(=O)[C@@H](CCC(=O)O)NC(=O)[C@H](CCC(=O)NC[C@H](O)[C@@H](O)[C@H](O)[C@H](O)CO)NC(=O)[C@@H](CCC(=O)O)NC(=O)[C@H](CCC(=O)NC[C@H](O)[C@@H](O)[C@H](O)[C@H](O)CO)NC(=O)CC[C@@H](NC(=O)c2ccc(NCc3cnc4nc(N)[nH]c(=O)c4n3)cc2)C(=O)O)C(=O)O)cs1)C(C)C", "note": "[EC1456]", "values": [
      {"measurement": "EC1456 Activity (IC50)", "setting": "A549", "result": "Inactive"},
      {"measurement": "Relative Affinity", "setting": "folate receptors (FRs)", "result": 0.27},
      {"measurement": "IC50", "setting": "LNCaP", "result": "~850", "unit": "nM"},
      {"measurement": "Competable up to 100 nM", "setting": "IGROV1; IGROV1", "result": "Yes"},
      {"measurement": "IC50", "setting": "IGROV1; IGROV1, FR status +, evaluated from 0.1-100 nM, read-out: EC1456 Activity (IC50)", "result": 0.72, "unit": "nM"},
      {"measurement": "weight loss / gross whole animal toxicity (% weight change)", "setting": "MDA-MB-231 tumors; 2 μmmol/kg i.v., 2 weeks", "result": "did not cause gross whole animal toxicity; also recorded: not accompanied by significant weight loss"},
      {"measurement": "cures", "setting": "MDA-MB-231 tumors; 2 μmmol/kg intravenous, 2 consecutive weeks", "result": "4 of 5"}
    ]}
  ]
}
